This is an account of results in PMC10004598, “Identification and Characterization of a Novel Cathelicidin from Hydrophis cyanocinctus with Antimicrobial and Anti-Inflammatory Activity” (Molecules, 2023).

Converted amounts (≈) assume the structure as drawn. Read-outs that look alike come from different tables or passages of the source. No end group written: not given here.

In series [1] the test system is K. pneumoniae 50 (clinical isolate). In words: microbe, parasite or virus in culture. As to the method: (§1) The microorganisms (Staphylococcus aureus [ATCC 25923], Escherichia coli [ATCC 25922], and Propionibacterium acnes [ATCC 6919]) were obtained from Fuxiang Biotechnology (Shanghai, China). The five strains of K. pneumoniae clinical isolates (44, 48, 49, 50, and 51) were obtained from the Department of Critical Care Medicine, Shanghai Tenth People’s Hospital.
(§2) The antimicrobial assay was performed by broth microdilution method, following the guidelines of the Clinical and Laboratory Standards Institute. Strains (mentioned in Section 4.3) were inoculated into Mueller-Hinton broth (MH), oscillated (37 °C, 220 rpm, 12 h) to the logarithmic growth stage, and then diluted to 10^6 CFU/mL. […] Then, the absorbance was measured at 600 nm in a microplate reader (Epoch Biotek, Winooski, VT, USA). […] The minimum inhibitory concentration (MIC) was defined as the lowest concentration of an antimicrobial where there was no visible growth. After measuring the MIC, a 50 μL sample was taken from the growth well without visible bacteria, serially diluted with phosphate-buffered saline (PBS, pH = 7.0), then spread on an MH agar solid medium and incubated at 37 °C for 12 h. The number of colonies was calculated, and the minimum drug concentrations that killed 99.9% of bacteria were considered the minimum bactericidal concentration (MBC) of the peptide.

The test system of series [2] is Klebsiella pneumoniae 44 (clinical isolate). In words: microbe, parasite or virus in culture. The procedure:
as §1, §2

The subject of series [3] is K. pneumoniae 49 (clinical isolate). Kind of series: microbe, parasite or virus in culture. The procedure: as §1, §2
The test system of series [4] is Escherichia coli [ATCC 25922]. Kind of series: microbe, parasite or virus in culture. As to the method:
as §1, §2

Series [5] has as its system K. pneumoniae 48 (clinical isolate). In words: microbe, parasite or virus in culture. As to the method: as §1, §2
Series [6] deals with Propionibacterium acnes [ATCC 6919]. Kind of series: microbe, parasite or virus in culture. As to the method: as §1, §2
Series [7] has as its system K. pneumoniae 51 (clinical isolate). Kind of series: microbe, parasite or virus in culture. As to the method: as §1, §2
Series [8] relates to E. coli. Format: cell-based, Escherichia coli. The note with it: compound at MBC, 37 °C. As to the method:
Time-killing kinetics were determined with the method as previously described. […] The mixture was sampled 50 μL at 5, 15, 30, 60, 120, 240, and 480 min. Dilute the samples with sterile MH broth to a 10-fold gradient. Bacterial suspensions were plated at MH agar plates. After incubation at 37 °C for 12 h, the number of colonies was calculated.

Series [9] has as its system L929 (mouse fibroblast cell line). In words: Cytotoxicity assay (CCK-8). Format: cell-based. To be noted: L929, 32 μg/mL, 24 h, mean of three independent experiments in triplicate. As to the method:
(§3) RAW264.7 (murine macrophage cell line), L929 (mouse fibroblast cell line), and HaCaT (human immortal keratinocyte cell line) were purchased from the Shanghai Institute of Biochemistry and Cell Science, Chinese Academy of Sciences.
(§4) The cells were cultured using a DMEM medium containing 10%FBS and 1% penicillin-streptomycin solution. In 96-well plates, 100 µL of cells (2 × 10^4 cells/well) in DMEM were seeded and cultured overnight in an incubator at 5% CO2 and 37 °C. […] Subsequently, the medium was replaced by 100 μL DMEM containing 10% Cell Counting Kit-8 reagent, and incubated for 0.5 h at 37 °C. The absorbance was measured at […].

Series [10] concerns HaCaT (human immortal keratinocyte cell line). In words: Cytotoxicity assay (CCK-8). In kind it is cell-based. To be noted: 32 μg/mL, 24 h, mean of three independent experiments in triplicate. The procedure:
as §3, §4

Series [11] concerns S. aureus biofilm formation. In words: Biofilm inhibition assay (crystal violet). Format: cell-based, Staphylococcus aureus. To be noted: 2 × MIC, 37 °C, 24 h, absorbance 600 nm, three independent experiments in quintuplicate. The procedure: Sterile PBS was used to wash 3 times and methanol was used to fix it for 0.5 h. After drying, 1% crystal violet solution was used to stain for 0.5 h, washed 3 times with sterilized deionized water, and dissolved with 100 μL anhydrous ethanol. The absorbance was measured at 600 nm.

Series [12] deals with E. coli. To be noted: mean of three independent experiments in triplicate. The procedure:
E.coli was inoculated into MH broth and oscillated (37 °C, 220 rpm, 12 h) to the logarithmic growth stage. Then diluted to 10^6 CFU/mL. […] Then, the absorbance was measured at 600 nm.

The subject of series [13] is Staphylococcus aureus [ATCC 25923]. The note with it: broth microdilution, MH broth, 37 °C, 16–20 h. The procedure:
as §1, §2

Series [14] deals with human erythrocytes. To be noted: human erythrocytes 2% suspension, 250 μg/mL, 37 °C, 0.5 h, absorbance 540 nm, 1% Triton X-100 = complete hemolysis; mean of three independent experiments in triplicate. As to the method:
Centrifuge at 25 °C at 1500 rpm for 5 min. Transfer 180 μL of supernatant to a 96-well plate and measure absorbance value at 540 nm. Normal saline was used as a negative control and 1% Triton X-100 solution as a positive control (complete hemolysis).

Series [15] has as its system E. coli. The note with it: mean of three independent experiments in triplicate. The procedure: E. coli was inoculated into MH broth and oscillated (37 °C, 220 rpm, 12 h) to the logarithmic growth stage. Then diluted to 10^6 CFU/mL in MH broth with NaCl (0, 50, 100, 150, and 200 mM) or CaCl2 (1, 2, and 4 mM). […] The absorption value was detected at 600 nm.
This is another data set of the same source.

For series [16], the system named is E. coli. To be noted: human serum:peptide solution (10 mg/mL) 4:1 v:v, 37 °C, read-out MIC, mean of three independent experiments in triplicate.
Method: The same amount of solution was taken at each time point and gradient dilution was carried out with normal saline.
Series [17] relates to E. coli. The note with it: mean of three independent experiments in triplicate. The procedure:
E. coli was inoculated into MH broth and oscillated (37 °C, 220 rpm, 12 h) to the logarithmic growth stage. Then diluted to 10^6 CFU/mL. […] The MICs of these peptides were then measured.
The source holds these as a separate data set.

For the molecule `CC1(C)S[C@@H]2[C@H](NC(=O)[C@H](N)c3ccccc3)C(=O)N2[C@H]1C(=O)O` [Ampicillin, reference compound], the MIC in series [1] (Klebsiella pneumoniae) was > 128 µg/mL; in series [2] (Klebsiella pneumoniae), > 128 µg/mL; in series [3] (Klebsiella pneumoniae), > 128 µg/mL; in [5] (Klebsiella pneumoniae) it was > 128 µg/mL; in series [6] (Cutibacterium acnes, ATCC6919), 0.25 µg/mL (≈ 0.715 µM); in [7] (Klebsiella pneumoniae), > 128 µg/mL. The molecule also yielded an MBC in [4] (ATCC25922, 12 h) of 16 µg/mL (≈ 45.8 µM). Further, the “time at which bacteriostatic effect starts” value in series [8] is on record as ≥ 1 h. Besides, the “killing of E. coli within 8 h” value in [8] (8 h) is “failed to completely kill”. Further, in [8] (after 4 h), the killing rate result is given as “about 47%”.

As to “KRFKKFFKKLRKSVKKRVKKFFKKPKVIGVSIPF [Hydrostatin-AMP2]”, the “Cell Death” value is recorded as 8.08% in series [9] and 5.89% in series [10]. Besides, the “inhibition of biofilm formation” value in series [11] stood at 71.02%. In addition, the “MIC after incubation at temperature” value came out at 32 µg/mL in series [12] (peptide incubated at 4 °C for 1 h), 32 µg/mL in [12] (peptide incubated at 37 °C for 1 h), 32 µg/mL in series [12] (peptide incubated at 80 °C for 1 h) and 64 µg/mL in series [12] (peptide incubated at 100 °C for 1 h). For the same molecule, the MIC in series [13] was 32 µg/mL; in series [15] (Control (NaCl 0 mM, untreated peptide)), 16 µg/mL; in series [15] (MH broth with CaCl2 1 mM) it was 64 µg/mL; in series [15] (MH broth with CaCl2 2 mM) it was 64 µg/mL; in series [15] (MH broth with CaCl2 4 mM), 128 µg/mL; in [15] (MH broth with NaCl 50 mM), 32 µg/mL. The MIC in [15] (MH broth with NaCl 100 mM) was found to be 32 µg/mL; in series [15] (MH broth with NaCl 150 mM), 32 µg/mL; in series [15] (MH broth with NaCl 200 mM), 64 µg/mL; in series [1] (K. pneumoniae 50, clinical isolate, broth microdilution, MH broth, 37 °C, 16–20 h), 32 µg/mL; in series [2] (Klebsiella pneumoniae 44, clinical isolate, broth microdilution, MH broth, 37 °C, 16–20 h) it was 32 µg/mL; in series [3] (K. pneumoniae 49, clinical isolate, broth microdilution, MH broth, 37 °C, 16–20 h), 32 µg/mL. The MIC in [4] (broth microdilution (CLSI), MH broth, 10^6 CFU/mL, 37 °C, 16–20 h, absorbance 600 nm) amounted to 16 µg/mL; in [5] (K. pneumoniae 48, clinical isolate, broth microdilution, MH broth, 37 °C, 16–20 h) it was 16 µg/mL; in series [6] (Propionibacterium acnes, broth microdilution, MH broth, 37 °C, 16–20 h), 32 µg/mL; in series [7] (K. pneumoniae 51, clinical isolate, broth microdilution, MH broth, 37 °C, 16–20 h), 32 µg/mL. The same molecule returned a Hemolysis in series [14] of 4.6%. In addition, the “MIC after incubation with human serum” value in series [16] (1 h), in series [16] (2 h) and in series [16] (3 h) was 32 µg/mL in each case. This molecule also registered an MBC in [4] (minimum concentration killing 99.9% of bacteria, plating on MH agar, 37 °C, 12 h) of 32 µg/mL. The “MIC after incubation at pH 2” value in [17] (peptide incubated in PBS pH 2 for 4 h at 37 °C) turned out to be 64 μg/mL. Further, in [17] (peptide incubated in PBS pH 12 for 4 h at 37 °C), the “MIC after incubation at pH 12” value is 64 μg/mL.
